Literature values as cited in patent US11931418B2, “Methods of treating severe inflammation” (Ashvattha Therapeutics, Inc., priority 2020, dated 2024).

Test system: SARS-CoV-2 patients
Settings: COVID-19 patients

## lopinavir-ritonavir
  clinical benefit: no benefit observed
